Laboratory results from BindingDB's records for doi:10.1016/j.bmcl.2010.08.118 (Roche Palo Alto, 2010).

Assay: Inhibition of CCR5 by cell-cell fusion inhibition assay

SMILES | IC50
Cc1ncnc(C)c1C(=O)N1C[C@H]2CN(CCC(c3ccccc3)C3CN(C(=O)CC(C)C)C3)C[C@H]2C1 (stereo partly drawn) [1-(3-(3-((3aR,6aS)-5-(4,6-dimethylpyrimidine-5-carbonyl)hexahydropyrrolo[3,4-c]pyrrol-2(1H)-yl)-1-phenylpropyl)azetidin-1-yl)-3-methylbutan-1-one] | > 5000 nM
Cc1ncnc(C)c1C(=O)N1C[C@H]2CN(CCC(c3ccccc3)C3CCN(C(=O)C(C)C)CC3)C[C@H]2C1 (stereo partly drawn) [1-(4-(3-((3aR,6aS)-5-(4,6-dimethylpyrimidine-5-carbonyl)hexahydropyrrolo[3,4-c]pyrrol-2(1H)-yl)-1-phenylpropyl)piperidin-1-yl)-2-methylpropan-1-one] | > 5000 nM
Cc1ncnc(C)c1C(=O)N1C[C@H]2CN(CCC(c3ccccc3)C3CCN(C(=O)CC(C)C)CC3)C[C@H]2C1 (stereo partly drawn) [1-(4-(3-((3aR,6aS)-5-(4,6-dimethylpyrimidine-5-carbonyl)hexahydropyrrolo[3,4-c]pyrrol-2(1H)-yl)-1-phenylpropyl)piperidin-1-yl)-3-methylbutan-1-one] | 2820 nM
CCC(=O)N1CCC(C(CCN2C[C@@H]3CN(C(=O)c4c(C)ncnc4C)C[C@@H]3C2)c2ccccc2)CC1 (stereo partly drawn) [1-(4-(3-((3aR,6aS)-5-(4,6-dimethylpyrimidine-5-carbonyl)hexahydropyrrolo[3,4-c]pyrrol-2(1H)-yl)-1-phenylpropyl)piperidin-1-yl)propan-1-one] | > 5000 nM
Cc1cc(=O)oc(C)c1C(=O)N1C[C@H]2CN(CCC(c3ccccc3)C3CCN(S(C)(=O)=O)CC3)C[C@H]2C1 (stereo partly drawn) [4,6-dimethyl-5-((3aR,6aS)-5-(3-(1-(methylsulfonyl)piperidin-4-yl)-3-phenylpropyl)octahydropyrrolo[3,4-c]pyrrole-2-carbonyl)-2H-pyran-2-one] | 8 nM
Cc1ncnc(C)c1C(=O)N1C[C@H]2CN(CCC(c3ccccc3)C3CCN(C(=O)NC(C)C)CC3)C[C@H]2C1 (stereo partly drawn) [4-(3-((3aR,6aS)-5-(4,6-dimethylpyrimidine-5-carbonyl)hexahydropyrrolo[3,4-c]pyrrol-2(1H)-yl)-1-phenylpropyl)-N-isopropylpiperidine-1-carboxamide] | > 5000 nM
Cc1ncnc(C)c1C(=O)N1C[C@H]2CN(CCC(c3ccccc3)C3CN(S(=O)(=O)C(C)C)C3)C[C@H]2C1 (stereo partly drawn) [(4,6-dimethylpyrimidin-5-yl)((3aR,6aS)-5-(3-(1-(isopropylsulfonyl)azetidin-3-yl)-3-phenylpropyl)hexahydropyrrolo[3,4-c]pyrrol-2(1H)-yl)methanone] | 93 nM
Cc1ncnc(C)c1C(=O)N1C[C@H]2CN(CCC(c3ccccc3)C3CCN(S(=O)(=O)C(C)C)CC3)C[C@H]2C1 (stereo partly drawn) [(4,6-dimethylpyrimidin-5-yl)((3aR,6aS)-5-(3-(1-(isopropylsulfonyl)piperidin-4-yl)-3-phenylpropyl)hexahydropyrrolo[3,4-c]pyrrol-2(1H)-yl)methanone] | 99 nM
Cc1ncnc(C)c1C(=O)N1C[C@H]2CN(CCC(c3ccccc3)C3CN(CC(F)(F)F)C3)C[C@H]2C1 (stereo partly drawn) [(4,6-dimethylpyrimidin-5-yl)((3aR,6aS)-5-(3-phenyl-3-(1-(2,2,2-trifluoroethyl)azetidin-3-yl)propyl)hexahydropyrrolo[3,4-c]pyrrol-2(1H)-yl)methanone] | > 5000 nM
Cc1ncnc(C)c1C(=O)N1C[C@H]2CN(CCC(c3ccccc3)C3CCN(CC(F)(F)F)CC3)C[C@H]2C1 (stereo partly drawn) [(4,6-dimethylpyrimidin-5-yl)((3aR,6aS)-5-(3-phenyl-3-(1-(2,2,2-trifluoroethyl)piperidin-4-yl)propyl)hexahydropyrrolo[3,4-c]pyrrol-2(1H)-yl)methanone] | 34 nM
Cc1ncnc(C)c1C(=O)N1C[C@H]2CN(CCC(c3cccc(F)c3)C3CCN(CC(F)F)CC3)C[C@H]2C1 (stereo partly drawn) [((3aR,6aS)-5-(3-(1-(2,2-difluoroethyl)piperidin-4-yl)-3-(3-fluorophenyl)propyl)hexahydropyrrolo[3,4-c]pyrrol-2(1H)-yl)(4,6-dimethylpyrimidin-5-yl)methanone] | 11 nM
Cc1ncnc(C)c1C(=O)N1C[C@H]2CN(CCC(c3ccccc3)C3CCN(CC(F)F)CC3)C[C@H]2C1 (stereo partly drawn) [((3aR,6aS)-5-(3-(1-(2,2-difluoroethyl)piperidin-4-yl)-3-phenylpropyl)hexahydropyrrolo[3,4-c]pyrrol-2(1H)-yl)(4,6-dimethylpyrimidin-5-yl)methanone] | 137 nM
Cc1ncnc(C)c1C(=O)N1C[C@H]2CN(CCC(c3ccccc3)C3CN(C(=O)C4CCCC4)C3)C[C@H]2C1 (stereo partly drawn) [((3aR,6aS)-5-(3-(1-(cyclopentanecarbonyl)azetidin-3-yl)-3-phenylpropyl)hexahydropyrrolo[3,4-c]pyrrol-2(1H)-yl)(4,6-dimethylpyrimidin-5-yl)methanone] | 2830 nM
Cc1ncnc(C)c1C(=O)N1C[C@H]2CN(CCC(c3cc(F)cc(F)c3)C3CN(S(=O)(=O)C4CC4)C3)C[C@H]2C1 (stereo partly drawn) [((3aR,6aS)-5-(3-(1-(cyclopropylsulfonyl)azetidin-3-yl)-3-(3,5-difluorophenyl)propyl)hexahydropyrrolo[3,4-c]pyrrol-2(1H)-yl)(4,6-dimethylpyrimidin-5-yl)methanone] | 63 nM
Cc1ncnc(C)c1C(=O)N1C[C@H]2CN(CCC(c3cccc(F)c3)C3CN(S(=O)(=O)C4CC4)C3)C[C@H]2C1 (stereo partly drawn) [((3aR,6aS)-5-(3-(1-(cyclopropylsulfonyl)azetidin-3-yl)-3-(3-fluorophenyl)propyl)hexahydropyrrolo[3,4-c]pyrrol-2(1H)-yl)(4,6-dimethylpyrimidin-5-yl)methanone] | 30 nM
Cc1ncnc(C)c1C(=O)N1C[C@H]2CN(CCC(c3ccccc3)C3CN(S(=O)(=O)C4CC4)C3)C[C@H]2C1 (stereo partly drawn) [((3aR,6aS)-5-(3-(1-(cyclopropylsulfonyl)azetidin-3-yl)-3-phenylpropyl)hexahydropyrrolo[3,4-c]pyrrol-2(1H)-yl)(4,6-dimethylpyrimidin-5-yl)methanone] | 313 nM
COC(=O)N1CCC(C(CCN2C[C@@H]3CN(C(=O)c4c(C)ncnc4C)C[C@@H]3C2)c2ccccc2)CC1 (stereo partly drawn) [methyl 4-(3-((3aR,6aS)-5-(4,6-dimethylpyrimidine-5-carbonyl)hexahydropyrrolo[3,4-c]pyrrol-2(1H)-yl)-1-phenylpropyl)piperidine-1-carboxylate] | 744 nM
